Measurements reported in patent US9168306B2, “Drug delivery agents comprising cyclodextrin covalently linked to a gemini surfactant, and pharmaceutical compositions comprising the same” (University of Saskatchewan, priority 2011, dated 2015).
Values joined by “and” are separate entries in the source; they are usually repeats but may differ in a detail not shown here. Equal entries are not always repeated.

Assays:
[1] = Size and ζ-potential measurement of compositions (Zetasizer Nano ZS); assay type: physicochemical
Protocol: Due to their low solubility in water, for the in vitro testing, each drug was dissolved in dimethylsulfoxide (DMSO, Sigma) at 2 mM concentration. The drug was added at increasing concentrations of 0.01-200 μM to the supplemented media with the final DMSO concentration of 2% exposed to the cells. For the formulations, CD or CDgemini was dissolved in water (10 mM) and the drugs were dissolved in methanol (2 mM). The delivery agent to drug mole ratio was maintained at 2:1. The solvent mixture was evaporated in a rotary evaporator under vacuum and the residue was reconstituted in water. Samples were dispersed by sonication for 2 h and stored overnight at 4° C. Samples were re-sonicated, prior to diluting in supplemented media, for 15 min.
Compositions were prepared as described above. The size and ζ-potential of the particles were measured with a Zetasizer Nano ZS instrument (Malvern Instruments, UK). Results are reported as the mean of 3-5 measurements±standard deviations.

A375 cells [2] = assay: Flow cytometry cell cycle analysis (propidium iodide); assay type: cell-based, human; conditions: delivery agent alone as control, 14 μM; 48 h
Protocol: (§1) A375 cells at the second passage were seeded at a density of 1×10^6 cells per well in 6 well tissue culture-treated plates. Cells were incubated at 37° C. in a humidified incubator with 5% CO2 and 95% air, overnight. […] The resveratrol and sodium butyrate controls were used to calibrate the flow cytometer for cell cycle arrest in the A375 cell. All treatments were performed in triplicate wells. Cells were incubated with the formulations and controls for 48 h. All cells, floating and adherent, were collected, the triplicate wells pooled and washed in PBS. The cell populations were divided into two. Half of the cells was fixed in 70% ethanol for 2 h, washed twice in 300 μg/mL RNase A (Qiagen) in PBS. The cell pellet was resuspended in PBS and stained with propidium iodide, 20 μg/mL (Sigma). The other half of the cells was suspended in binding buffer and stained as per the Annexin V-FITC Apoptosis Detection Kit (BioVision) protocol.
(§2) Flow cytometry was performed with a FacsCalibur instrument (BD Biosciences). The treatment groups were analyzed using ModFit LT flow cytometry modeling software (Verity Software House, Inc) after gating the area of non-treated cells by excluding aggregates and debris.

A375 cells [3] = assay: Flow cytometry apoptosis assay (Annexin V-FITC / propidium iodide); assay type: cell-based, human; conditions: delivery agent alone as control, 14 μM; 48 h
Protocol: as §1, with “The other half of the cells was suspended in binding buffer and stained as per the Annexin V-FITC Apoptosis Detection Kit (BioVision) protocol.” left out
as §2
The type of cell death of the A375 cells after treatment of the compositions was captured by performing the apoptosis assay (as shown in FIG. 7). […] Apoptosis was measured by dual staining of the cells with Annexin V-FITC and propidium iodide. […]

[4] = Transmission electron microscopy of compositions; assay type: physicochemical
Protocol: Drug/CDgemini conjugates prepared for the size measurements were used for TEM. Aliquots of 10 μL samples were dropped onto 300-mesh formvar-coated copper grids (SPI Supplies) and incubated for 5 min at room temperature. The water was wicked off the grids with absorbent tissue and the grids were stained with 1% phosphotungstic acid for 2 min. The stain was removed and the grids were dried at room temperature for 15 min. The samples were examined with a Philips CM10 electron microscope at an accelerating voltage of 80 kV.

[5] = test system: a number of cancer cells, including human SK-MEL-5 cells; conditions: literature values; cited from earlier work

SMILES	formation of supramolecular aggregates [1]	cells in G0/G1 (A375 cells [2]) [%]	cells in S-phase (A375 cells [2]) [%]	apoptosis, of the total population (A375 cells [3]) [%]	Particle size Peak 1 Intensity [1] [%]	ζ potential [1]	Particle size Peak 1 ([1]; mean of 3-5 measurements ± SD) [nm]	PDI ([1]; polydispersity index)	size of particles in TEM images [4]	cytotoxic concentrations [5] [µM]
OC[C@H]1O[C@@H]2O[C@H]3[C@H](O)[C@@H](O)[C@@H](O[C@H]4[C@H](O)[C@@H](O)[C@@H](O[C@H]5[C@H](O)[C@@H](O)[C@@H](O[C@H]6[C@H](O)[C@@H](O)[C@@H](O[C@H]7[C@H](O)[C@@H](O)[C@@H](O[C@H]8[C@H](O)[C@@H](O)[C@@H](O[C@H]1[C@H](O)[C@H]2O)O[C@@H]8CO)O[C@@H]7CO)O[C@@H]6CO)O[C@@H]5CO)O[C@@H]4CO)O[C@@H]3CO [CD, β-Cyclodextrin, reference compound]	neither CD nor drug/CD conjugates formed supramolecular aggregates	56	43	25	–	–	–	–	–	–
CCCCCCCCCCCC[N+](C)(C)CCCN(CCC[N+](C)(C)CCCCCCCCCCCC)C(=O)CCC(=O)OCC1OC2OC3C(CO)OC(OC4C(CO)OC(OC5C(CO)OC(OC6C(CO)OC(OC7C(CO)OC(OC8C(CO)OC(OC1C(O)C2O)C(O)C8O)C(O)C7O)C(O)C6O)C(O)C5O)C(O)C4O)C(O)C3O.[Cl-].[Cl-] (stereo not drawn) [CDgemini, [mono-6-o-(3{bis(3-(N-dodecyl-N,N-dimethylamino)-propyl)-carbamoyl}propanoyl)-beta-cyclodextrin]^2+]	–	65	35	31	100	5.74±0.53 mV and 5.7 ± 0.5 mV	153.6±4.3	0.2	100-150 nm	–
N[C@@H](Cc1ccc(N(CCCl)CCCl)cc1)C(=O)O [melphalan]	–	–	–	–	–	–	–	–	–	52 to 219
